# Reference: patent US6589967B1, “Oxime O-ether compounds and fungicides for agricultural and horticultural use” (Nippon Soda Co. Ltd., priority 1999, dated 2003)
# Tested on: snap bean gray mold fungus (Botrytis cinerea)
# Assay: Test on Kidney Bean Gray Mold Control
# Format: in vivo
# Details: 50 ppm active ingredient, cut Kidney bean flowers (Nagauzura) dipped, spores sprayed, placed on detached leaves, 7 days at 20° C., high humidity
# Description: Now, explanation is made on how the compounds according to the present invention are effective as an active ingredient of a fungicide for controlling various plant diseases with reference to Test examples described later. In the Test Examples, the control efficacy is determined by visually checking the infested state of the test plants at the time of observation, namely, checking the damage to the host plants and the developing state of the disease-causing fungus appeared on leaves, stems, etc. of the test plants, compared to the control test plants which are healthy. Flowers of Kidney bean (variety; Nagauzura) grown in a flat vessel for culturing seedlings are cut, and the cut flowers were dipped into a solution prepared by diluting the emulsifiable concentrate prepared for the compound of the present invention at a concentration of 50 ppm based on the active ingredient. After the dipping, the flowers were dried at a room temperature. Then, spore solution of snap bean gray mold fungus (Botrytis cinerea) was sprayed to the flowers. The flowers sprayed with spores of the gray mold fungus were placed on the leaves which were detached from healthy Kidney bean plants, and those leaves were placed in a room being maintained at 20° C. and high humidity with repeated lighting of 12 hours intervals, and the Kidney bean leaves were incubated in the room for 7 days. Then, the infestation degree by the fungus on the leaves was checked in comparison to the control healthy leaves to determine the control efficacy. […] Note that the compound numbers in the following correspond to the same compound numbers in the Table 1. Compound Nos. 1, 3, 6, 7, 11, 12, 13, 14, 15, 18, 20, 21, 22, 23, 25, 26, 27, 29, 36, 48, 49, 192, 194, 195, 196, 198, 201, 203, 204, 207, 208, 209, 210, 213, 216, 219, 220, 222, 223, 224, 225, 227, 228, 229, 231, 233, 234, 235, 236, 237, 239, 240, 242
smiles,measurement,value
"COc1cccc(OC)c1CON=Cc1cc(C)cc(C)n1 [Compound No. 196, 4,6-Dimethyl-2-pyridinecarboxyaldehyde O-[(2,6-Dimethoxyphenyl)methyl] Oxime]",control performance (control efficacy),excellent control performance
